These results are taken from EP4725941A1, “ARYLAMIDE DERIVATIVE HAVING ANTITUMOR ACTIVITY” (priority 2020, dated 2021).

The structures appear in SMILES notation.

One data set has as its target T1, BRAF (Homo sapiens, UniProt P15056).
T1 construct: purchased Eurofins Genomics KK; (BRAF); Thermo Fisher Scientific Inc. (MEK1)
Description: BRAF-inhibiting activity, time-resolved fluorescence-fluorescence resonance energy transfer assay. Format: biochemical. Conditions: read-out: BRAF IC50; Table 3. Here is the method:
The BRAF-inhibiting activity of the compounds listed in Table 3 below was evaluated by the time-resolved fluorescence-fluorescence resonance energy transfer assay as described below.

In another data set the target is T2, MEK1 (Homo sapiens, UniProt Q02750).
T2 construct: purchased Thermo Fisher Scientific Inc. (MEK1, CRAF); Carna Biosciences, Inc. (ERK2)
T2 sequence (Q02750 whole entry): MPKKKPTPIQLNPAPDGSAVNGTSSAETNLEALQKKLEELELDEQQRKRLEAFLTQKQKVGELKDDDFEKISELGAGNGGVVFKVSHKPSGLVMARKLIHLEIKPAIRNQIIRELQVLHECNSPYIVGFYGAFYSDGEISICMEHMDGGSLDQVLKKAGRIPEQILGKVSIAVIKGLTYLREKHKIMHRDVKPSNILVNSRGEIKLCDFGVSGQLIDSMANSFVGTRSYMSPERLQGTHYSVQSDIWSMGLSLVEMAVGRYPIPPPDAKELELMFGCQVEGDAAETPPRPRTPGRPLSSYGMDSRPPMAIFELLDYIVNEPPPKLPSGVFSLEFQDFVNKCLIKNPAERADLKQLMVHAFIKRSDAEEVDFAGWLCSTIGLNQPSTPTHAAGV
Description: MEK1-inhibiting activity, fluorescent polarization method (CRAF/MEK1/ERK2 cascade, IMAP). It counts as biochemical. Conditions: Table 3; read-out: MEK1 IC50. Here is the method:
The MEK1-inhibiting activity of the compounds listed in Table 3 below were evaluated by the fluorescent polarization method as described below.

Data set [1] in a line: Human liver microsome stability. Format: in vitro ADME. Conditions: human liver microsomes, pH 7.4. In general terms: Microsomes from liver hold many membrane-bound enzymes, among them those of drug oxidation.
A further data set has as its system A549. Description: Cell proliferation-inhibiting activity (ATP in viable cells, CellTiter-Glo), A549. It counts as cell-based, human. The conditions noted are these: A549, 96 h; human lung cancer cells, 4 days; read-out: A549 IC50. A general note: In ATP-based viability assays light output follows the ATP content of the culture.
The next data set relates to NCI-H2122. The data set can be described thus: Cell proliferation-inhibiting activity (ATP in viable cells, CellTiter-Glo), NCI-H2122. It counts as cell-based, human. Conditions: NCI-H2122, 96 h; human lung cancer cells, 4 days; read-out: NCI-H2122 IC50.

For orientation: IC50 means the midpoint of a concentration-inhibition curve. The term microsomal CLint denotes the capacity of the preparation to metabolise the compound, expressed as a volume cleared per time.

T1 sequence (P15056 417-766 limits assumed): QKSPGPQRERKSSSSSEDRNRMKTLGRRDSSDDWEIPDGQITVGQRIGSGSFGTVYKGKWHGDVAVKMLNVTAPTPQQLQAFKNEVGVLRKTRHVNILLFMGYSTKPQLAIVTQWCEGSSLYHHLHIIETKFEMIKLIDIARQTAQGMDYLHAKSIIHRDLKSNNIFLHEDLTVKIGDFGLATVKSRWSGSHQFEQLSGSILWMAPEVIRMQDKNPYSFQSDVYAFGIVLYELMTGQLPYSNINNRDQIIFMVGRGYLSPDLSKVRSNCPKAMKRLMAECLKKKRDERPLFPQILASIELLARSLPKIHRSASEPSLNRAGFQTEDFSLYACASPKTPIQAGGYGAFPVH

As to `CNS(C)(=O)=Nc1cc(Cc2cc(C(N)=O)c(Nc3ccc(I)cc3F)c(F)c2F)ccn1` (centres unmarked) [Compound C-4, 3,4-Difluoro-2-(2-fluoro-4-iodoanilino)-5-[[2-[[methyl-(methylamino)-oxo-λ6-sulfanylidene]amino]pyridin-4-yl]methyl]benzamide], the 50% inhibitory concentration (IC50) was 23 nM at BRAF, 224 nM on MEK1, 7 nM in the data set on A549 and 43 nM in the data set on NCI-H2122. Also, in data set [1], the intrinsic clearance (microsomal CLint) at 0.99 µM came out at 40 µL/min/mg.

Regarding `CNS(=O)(=O)Nc1nccc(Cc2cc(C(N)=O)c(Nc3ccc(I)cc3C)c(F)c2F)c1F` [Compound C-5, 3,4-Difluoro-5-[[3-fluoro-2-(methylsulfamoylamino)pyridin-4-yl]methyl]-2-(4-iodo-2-methylanilino)benzamide], the half-maximal inhibitory concentration (IC50) at BRAF is 3 nM; on MEK1, 56 nM; in the data set with A549, 22 nM; in the data set on NCI-H2122, 4 nM. In data set [1], this compound returned a microsomal CLint at 0.99 µM of 29 µL/min/mg.

`COCCNS(=O)(=O)Nc1cccc(Cc2cc(C(N)=O)c(Nc3ccc(I)cc3F)c(F)c2F)c1F` [Compound D-1, 3,4-Difluoro-2-(2-fluoro-4-iodoanilino)-5-[[2-fluoro-3-(2-methoxyethylsulfamoylamino)phenyl]methyl]benzamide]: the IC50 worked out at 1 nM at BRAF, 96 nM at MEK1, 9 nM in the data set on A549 and 5 nM in the data set on NCI-H2122. Moreover, the microsomal CLint at 0.99 µM in data set [1] was found to be 25 µL/min/mg.

As for `COCC(C)(C)NS(=O)(=O)Nc1cccc(Cc2cc(C(N)=O)c(Nc3ccc(I)cc3F)c(F)c2F)c1F` [Compound D-2, 3,4-Difluoro-2-(2-fluoro-4-iodoanilino)-5-[[2-fluoro-3-[(1-methoxy-2-methylpropan-2-yl)sulfamoylamino]phenyl]methyl]benzamide], the IC50 at BRAF came out at 3 nM; on MEK1 it was 242 nM; in the data set with A549, 9 nM; with NCI-H2122 it was 5 nM. Also, the microsomal CLint at 0.99 µM in data set [1] came to 103 µL/min/mg.

Regarding `NC(=O)c1cc(Cc2cccc(NS(=O)(=O)NC[C@H]3CCCO3)c2F)c(F)c(F)c1Nc1ccc(I)cc1F` [Compound D-3, 3,4-Difluoro-2-(2-fluoro-4-iodoanilino)-5-[[2-fluoro-3-[[(2R)-oxolan-2-yl]methylsulfamoylamino]phenyl]methyl]benzamide], the IC50 on BRAF turned out to be 1 nM; on MEK1, 130 nM; with A549, 26 nM; in the data set with NCI-H2122, 12 nM. Also, the microsomal CLint at 0.99 µM in data set [1] worked out at 68 µL/min/mg.

Consider `CCS(=O)(=O)Nc1cccc(Cc2cc(C(=O)NC3CC3)c(Nc3ccc(I)cc3F)c(F)c2F)c1F` [Compound D-8, N-Cyclopropyl-5-[[3-(ethylsulfonylamino)-2-fluorophenyl]methyl]-3,4-difluoro-2-(2-fluoro-4-iodoanilino)benzamide], for which the half-inhibitory concentration (IC50) at BRAF is 21 nM; on MEK1, 161 nM; in the data set on A549, 66 nM; with NCI-H2122 it was 8 nM. The compound further displayed an intrinsic metabolic clearance (microsomal CLint) at 0.99 µM in data set [1] of 20 µL/min/mg.

For `NC(=O)c1cc(Cc2cccc(NS(N)(=O)=O)c2F)c(F)c(F)c1Nc1ccc(I)cc1F` [Compound E-8, 3,4-Difluoro-2-(2-fluoro-4-iodoanilino)-5-[[2-fluoro-3-(sulfamoylamino)phenyl]methyl]benzamide], the IC50 on BRAF worked out at 2 nM; at MEK1 it was 137 nM; in the data set with A549 it was 3 nM; with NCI-H2122 it was 2 nM. The same compound came in with a microsomal CLint at 0.99 µM in data set [1] of 1 µL/min/mg.

In the case of `NC(=O)c1cc(Cc2cccc(NS(=O)(=O)CCCF)c2F)c(F)c(F)c1Nc1ccc(I)cc1F` [Compound E-15, 3,4-Difluoro-5-[[2-fluoro-3-(3-fluoropropylsulfonylamino)phenyl]methyl]-2-(2-fluoro-4-iodoanilino)benzamide], the IC50 on BRAF worked out at 4 nM; on MEK1, 287 nM; in the data set with A549, 20 nM; in the data set on NCI-H2122, 7 nM. Besides, the intrinsic clearance (microsomal CLint) at 0.99 µM in data set [1] was 21 µL/min/mg.

As to `CCCS(=O)(=O)Nc1cccc(Cc2cc(C(N)=O)c(Nc3ccc(I)cc3F)c(F)c2F)c1F` [Compound E-18, 3,4-Difluoro-2-(2-fluoro-4-iodoanilino)-5-[[2-fluoro-3-(propylsulfonylamino)phenyl]methyl]benzamide], the half-inhibitory concentration (IC50) on BRAF was found to be 5 nM; at MEK1, 366 nM; in the data set on A549, 7 nM; with NCI-H2122 it was 8 nM. The compound also yielded a microsomal CLint at 0.99 µM in data set [1] of 29 µL/min/mg.

As for `NC(=O)c1cc(Cc2cccc(NS(=O)(=O)C3CCC3)c2F)c(F)c(F)c1Nc1ccc(I)cc1F` [Compound E-20, 5-[[3-(Cyclobutylsulfonylamino)-2-fluorophenyl]methyl]-3,4-difluoro-2-(2-fluoro-4-iodoanilino)benzamide], the IC50 on BRAF stood at 13 nM; at MEK1, 467 nM; in the data set on A549, 37 nM; with NCI-H2122, 11 nM. This compound also yielded a microsomal CLint at 0.99 µM in data set [1] of 18 µL/min/mg.

For the compound `NC(=O)c1cc(Cc2cccc(NS(=O)(=O)C3COC3)c2F)c(F)c(F)c1Nc1ccc(I)cc1F` [Compound E-21], the concentration for half-maximal inhibition (IC50) on BRAF was found to be 24 nM; on MEK1, 189 nM; in the data set on A549, 30 nM; in the data set with NCI-H2122, 14 nM. In data set [1], this compound came in with an intrinsic metabolic clearance (microsomal CLint) at 0.99 µM of 13 µL/min/mg.

For `CNS(=O)(=O)Nc1cccc(Cc2cc(C(N)=O)c(Nc3ccc(I)cc3F)c(F)c2F)c1` [Compound F-1, 3,4-Difluoro-2-(2-fluoro-4-iodoanilino)-5-[[3-(methylsulfamoylamino)phenyl]methyl]benzamide], the half-maximal inhibitory concentration (IC50) stood at 5 nM on BRAF, 246 nM on MEK1, 7 nM in the data set with A549 and 3 nM in the data set on NCI-H2122. Moreover, the microsomal CLint at 0.99 µM in data set [1] is 10 µL/min/mg.

Regarding `COCCS(=O)(=O)Nc1cccc(Cc2cc(C(N)=O)c(Nc3ccc(I)cc3F)c(F)c2F)c1` [Compound F-3, 3,4-Difluoro-2-(2-fluoro-4-iodoanilino)-5-[[3-(2-methoxyethylsulfonylamino)phenyl]methyl]benzamide], the IC50 at BRAF amounted to 5 nM; at MEK1 it was 380 nM; in the data set on A549, 8 nM; with NCI-H2122, 24 nM. This compound also displayed a microsomal CLint at 0.99 µM in data set [1] of 28 µL/min/mg.

For the compound `CNS(=O)(=O)Nc1nccc(Cc2cc(C(=O)NOC)c(Nc3ccc(Cl)cc3F)c(F)c2F)c1F` [Compound G-4, 2-(4-Chloro-2-fluoroanilino)-3,4-difluoro-5-[[3-fluoro-2-(methylsulfamoylamino)pyridin-4-yl]methyl]-N-methoxybenzamide], the half-inhibitory concentration (IC50) at BRAF was found to be 4 nM; on MEK1, 53 nM; in the data set on A549 it was 28 nM; with NCI-H2122, 12 nM. Also, in data set [1], the microsomal CLint at 0.99 µM amounted to 26 µL/min/mg.

With `CNS(=O)(=O)Nc1nccc(Cc2cc(C(N)=O)c(Nc3ccc4sccc4c3)c(F)c2F)c1F` [Compound H-2, 2-(1-Benzothiophen-5-ylamino)-3,4-difluoro-5-[[3-fluoro-2-(methylsulfamoylamino)pyridin-4-yl]methyl]benzamide], the half-maximal inhibitory concentration (IC50) amounted to 2 nM at BRAF, 49 nM at MEK1, 31 nM in the data set with A549 and 16 nM in the data set with NCI-H2122. This compound also came in with an intrinsic metabolic clearance (microsomal CLint) at 0.99 µM in data set [1] of 77 µL/min/mg.

Regarding `CNS(=O)(=O)Nc1cccc(Cc2cc(C(N)=O)c(Nc3ccc(I)cc3F)c(F)c2F)n1` [Compound H-5, 3,4-Difluoro-2-(2-fluoro-4-iodoanilino)-5-[[6-(methylsulfamoylamino)pyridin-2-yl]methyl]benzamide], the half-inhibitory concentration (IC50) at BRAF is 2 nM; at MEK1, 115 nM; with A549 it was 6 nM; in the data set on NCI-H2122, 4 nM. This compound displayed a microsomal CLint at 0.99 µM in data set [1] of 26 µL/min/mg.

Take `CCNS(=O)(=O)Nc1nccc(Cc2cc(C(N)=O)c(Nc3ccc(I)cc3F)cc2F)c1F` [Compound I-2, 5-[[2-(Ethylsulfamoylamino)-3-fluoropyridin-4-yl]methyl]-4-fluoro-2-(2-fluoro-4-iodoanilino)benzamide]: the IC50 on BRAF was 3 nM; at MEK1 it was 47 nM; in the data set with A549, 25 nM; with NCI-H2122, 11 nM. In addition, the microsomal CLint at 0.99 µM in data set [1] is 12 µL/min/mg.

As for `CCS(=O)(=O)Nc1cccc(Cc2cc(C(=O)NC3CC3)c(Nc3ccc(I)cc3F)n(C)c2=O)c1F` [Compound K-8, N-Cyclopropyl-5-[[3-(ethylsulfonylamino)-2-fluorophenyl]methyl]-2-(2-fluoro-4-iodoanilino)-1-methyl-6-oxopyridine-3-carboxamide], the IC50 is 14 nM on BRAF, 209 nM at MEK1, 68 nM in the data set on A549 and 29 nM with NCI-H2122. The intrinsic metabolic clearance (microsomal CLint) at 0.99 µM in data set [1] amounted to 103 µL/min/mg.

In the case of `CNS(=O)(=O)Nc1nccc(Cn2cc(C(N)=O)c(Nc3ccc(I)cc3F)c(F)c2=O)c1F` [Compound N-1, 5-Fluoro-4-(2-fluoro-4-iodoanilino)-1-[[3-fluoro-2-(methylsulfamoylamino)pyridin-4-yl]methyl]-6-oxopyridine-3-carboxamide], the 50% inhibitory concentration (IC50) amounted to 2 nM on BRAF, 1 nM on MEK1, 20 nM with A549 and 28 nM with NCI-H2122. In data set [1], this compound yielded an intrinsic clearance (microsomal CLint) at 0.99 µM of 8 µL/min/mg.
